Experimental data reported in paper PMC3901304 (ACS medicinal chemistry letters, 2013).

Test system: T. gondii cells in culture
Experiment: Toxoplasma cell culture study
Assay type: cell-based, Toxoplasma gondii
Conditions: for T. gondii in cells at Day 4: no drug control 1140000; for T. gondii in media at Day 4: no drug control 3710000

SMILES	T. gondii in cells at Day 4 (compound at 5 μM)	T. gondii in media at Day 4 (compound at 5 μM)	effect on T. gondii in culture compared with PM (3 at 5 μM versus PM at 3 μM)	T. gondii in cells at Day 4 (PM at 3 μM)	T. gondii in media at Day 4 (PM at 3 μM)
Nc1nc2[nH]c3cccc(Sc4ccc5ccccc5c4)c3c2c(=O)[nH]1 [Compound 1]	340000	2350000	–	–	–
Nc1nc2[nH]c3cccc(Sc4ccccc4)c3c2c(=O)[nH]1 [Compound 2]	140000	100000	–	–	–
Nc1nc2[nH]c3cccc(Sc4cccc5ccccc45)c3c2c(=O)[nH]1 [Compound 3]	<2500	<25000	equivalent to PM at 3 μM	–	–
CCc1nc(N)nc(N)c1-c1ccc(Cl)cc1 [PM, pyrimethamine, reference compound]	–	–	–	<2500	<25000
